Laboratory results as given in the NIST ThermoML archive (doi:10.1021/je600568w).

Legend:
[1] = 101 kPa, Liquid; for viscosity: Capillary tube (Ostwald / Ubbelohde) method
[2] = xn = mol fraction of the nth substance listed; details: 101 kPa, Liquid; for viscosity: Capillary tube (Ostwald / Ubbelohde) method

C=C(C)C(=O)OCc1ccccc1 [benzyl methacrylate]
[1]
Details | mass density [kg/m3] | viscosity [mPa·s]
298.15 K | 1034.7 | 2.302
308.15 K | 1025.8 | 1.885
318.15 K | 1017 | 1.58

CCOC(=O)C(C)O (stereo not drawn) [DL-ethyl lactate] + C=C(C)C(=O)OCc1ccccc1
[2], x1 = 1
Details | mass density [kg/m3] | viscosity [mPa·s]
298.15 K | 1029.1 | 2.398
308.15 K | 1018.7 | 1.863
318.15 K | 1007.5 | 1.494

C=C(C)C(=O)OCCO [2-hydroxyethyl 2-methyl-2-propenoate] + CCOC(=O)C(C)O
[2]
Details | mass density, 298.15 K [kg/m3] | mass density, 308.15 K [kg/m3] | mass density, 318.15 K [kg/m3] | viscosity, 298.15 K [mPa·s] | viscosity, 308.15 K [mPa·s] | viscosity, 318.15 K [mPa·s]
x2 = 0 | 1067.1 | 1057.7 | 1048.6 | 5.784 | 4.194 | 3.181
x2 = 0.1 | 1063.9 | 1054.7 | 1045.6 | 5.23 | 3.833 | 2.938
x2 = 0.2 | 1060.6 | 1051.4 | 1042.2 | 4.75 | 3.513 | 2.71
x2 = 0.3 | 1057.1 | 1047.9 | 1038.5 | 4.36 | 3.215 | 2.493
x2 = 0.4 | 1053.5 | 1044.3 | 1034.6 | 3.989 | 2.975 | 2.311
x2 = 0.5 | 1049.8 | 1040.4 | 1030.6 | 3.663 | 2.742 | 2.141
x2 = 0.6 | 1045.9 | 1036.4 | 1026.4 | 3.343 | 2.526 | 1.985
x2 = 0.7 | 1041.8 | 1032.2 | 1022 | 3.041 | 2.323 | 1.834
x2 = 0.8 | 1037.7 | 1027.9 | 1017.5 | 2.767 | 2.127 | 1.689
x2 = 0.9 | 1033.4 | 1023.4 | 1012.8 | 2.524 | 1.949 | 1.556

C=C(C)C(=O)O [2-methyl-2-propenoic acid] + CCOC(=O)C(C)O
[2]
Details | mass density, 298.15 K [kg/m3] | mass density, 308.15 K [kg/m3] | mass density, 318.15 K [kg/m3] | viscosity, 298.15 K [mPa·s] | viscosity, 308.15 K [mPa·s] | viscosity, 318.15 K [mPa·s]
x2 = 0 | 1009.5 | 999.4 | 989.2 | 1.267 | 1.078 | 0.945
x2 = 0.1 | 1012.1 | 1002 | 991.7 | 1.422 | 1.19 | 1.02
x2 = 0.2 | 1014.6 | 1004.6 | 994.5 | 1.66 | 1.368 | 1.154
x2 = 0.3 | 1017 | 1007.4 | 997.3 | 1.933 | 1.567 | 1.306
x2 = 0.3999 | 1019.8 | 1010.2 | 999.9 | 2.181 | 1.742 | 1.43
x2 = 0.5 | 1022.5 | 1012.7 | 1002.2 | 2.378 | 1.87 | 1.52
x2 = 0.6 | 1024.7 | 1014.8 | 1004.2 | 2.465 | 1.929 | 1.551
x2 = 0.6999 | 1026.5 | 1016.5 | 1005.8 | 2.532 | 1.967 | 1.579
x2 = 0.8 | 1027.9 | 1017.8 | 1007.2 | 2.539 | 1.962 | 1.567
x2 = 0.9001 | 1028.7 | 1018.6 | 1008.2 | 2.471 | 1.907 | 1.526

C=C(C)C(=O)OCc1ccccc1 [benzyl methacrylate] + CCOC(=O)C(C)O
[2]
Details | mass density, 298.15 K [kg/m3] | mass density, 308.15 K [kg/m3] | mass density, 318.15 K [kg/m3] | viscosity, 298.15 K [mPa·s] | viscosity, 308.15 K [mPa·s] | viscosity, 318.15 K [mPa·s]
x2 = 0 | 1034.7 | 1025.8 | 1017 | 2.302 | 1.885 | 1.58
x2 = 0.1 | 1033.7 | 1024.3 | 1015.1 | 2.219 | 1.832 | 1.53
x2 = 0.1999 | 1032.7 | 1023.3 | 1013.9 | 2.166 | 1.8 | 1.493
x2 = 0.3 | 1032.1 | 1022.6 | 1012.9 | 2.153 | 1.77 | 1.458
x2 = 0.4 | 1031.6 | 1021.9 | 1012.1 | 2.149 | 1.753 | 1.437
x2 = 0.5 | 1031.1 | 1021.2 | 1011.2 | 2.161 | 1.749 | 1.426
x2 = 0.6 | 1030.7 | 1020.6 | 1010.4 | 2.179 | 1.753 | 1.426
x2 = 0.7 | 1030.2 | 1020 | 1009.5 | 2.209 | 1.761 | 1.431
x2 = 0.7999 | 1029.8 | 1019.4 | 1008.7 | 2.25 | 1.782 | 1.447
x2 = 0.9 | 1029.4 | 1018.9 | 1008 | 2.303 | 1.807 | 1.464

CCOC(=O)C(C)O (stereo not drawn) [DL-ethyl lactate] + C=C(C)C(=O)OCCO
[2], x1 = 1
Details | mass density [kg/m3] | viscosity [mPa·s]
298.15 K | 1029.1 | 2.398
308.15 K | 1018.7 | 1.863
318.15 K | 1007.5 | 1.494

CCOC(=O)C(C)O (stereo not drawn) [DL-ethyl lactate] + C=C(C)C(=O)O
[2], x1 = 1
Details | mass density [kg/m3] | viscosity [mPa·s]
298.15 K | 1029.1 | 2.398
308.15 K | 1018.7 | 1.863
318.15 K | 1007.5 | 1.494

CCOC(=O)C(C)O (racemic) [DL-ethyl lactate]
[1]
Details | mass density [kg/m3] | viscosity [mPa·s]
298.15 K | 1029.1 | 2.398
308.15 K | 1018.7 | 1.863
318.15 K | 1007.5 | 1.494

C=C(C)C(=O)OCCO [2-hydroxyethyl 2-methyl-2-propenoate]
[1]
Details | mass density [kg/m3] | viscosity [mPa·s]
298.15 K | 1067.1 | 5.784
308.15 K | 1057.7 | 4.194
318.15 K | 1048.6 | 3.181

C=C(C)C(=O)O [2-methyl-2-propenoic acid]
[1]
Details | mass density [kg/m3] | viscosity [mPa·s]
298.15 K | 1009.5 | 1.267
308.15 K | 999.4 | 1.078
318.15 K | 989.2 | 0.945
